{
  "source": "patent US12435091B2",
  "about": "“RNA-binding protein multimerization inhibitors and methods of use thereof” (THE UAB RESEARCH FOUNDATION, priority 2020, dated 2025)",
  "key": {"Log D at pH 7.4": {"test": "Log D at pH 7.4", "assay_type": "physicochemical", "description": "Selected compounds were assessed for their aqueous solubility, Log D and mouse and human liver microsomal stability."}, "[1]": {"test_system": "secreted proteins of astrocytes", "test": "ELISA of secreted proteins in culture media of LPS-stimulated astrocytes", "assay_type": "cell-based", "procedure": "Next, the impact of SRI-42127 on induction of inflammatory cytokine mRNAs as depicted in FIG. 15, Panel B was assessed. A significant 3-4-fold suppression of mRNA for IL-1β, IL-6, CXCL1, and CCL2 was observed. […] All chemokines were likewise suppressed, including KC, CCL2, CCL3, CCL4, CXCL10, from 2.5 to 8.1-fold."}, "HMGB1": {"test_system": "HMGB1", "test": "nuclear/cytoplasmic localization by confocal microscopy in LPS-activated primary microglia", "assay_type": "cell-based, mouse", "details": "0.5 μM for 24 hours", "procedure": "To assess the specificity of SRI-42127 for blocking HuR cytoplasmic translocation, the effect of SRI-42127 on cytoplasmic translocation of HMGB1 was assessed. Like HuR, HMGB1 is nuclear predominant and translocates with microglial activation. Primary microglia were treated with LPS and 0.5 μM of SRI-42127 for 24 hours. Cells were fixed and immunostained for HMGB1 and IBA1. Nuclear/cytoplasmic localization was assessed by confocal microscopy. Total HMGB1 immunofluorescence in each cell (boundaries defined by IBA1 staining), was quantified using Fiji software. The nuclear portion was determined by quantifying the amount of HMGB1 fluorescence that overlapped with DAPI fluorescence. HuR translocation was studied in parallel with the same methodology.\nIn unactivated microglia (LPS-), both HuR and HMGB1 were nuclear predominant with little to no merged signal with cytoplasmic IBA1 as depicted in FIG. 11, Panel C."}, "[2]": {"test_system": "U251 cells expressing Fluc construct", "test": "control Fluc (full length luciferase) reporter assay in U251 cells", "assay_type": "cell-based", "in_short": "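U251 cells carrying HuR fused to N- or C-terminal split firefly luciferase halves (dimer reporter) or full-length Fluc (control); constructs induced with doxycycline 0.75 ug/ml for 48 h. Compounds at various concentrations vs vehicle for 6 h. Luciferin-driven luminescence read; mean+SD.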"}, "[3]": {"test_system": "microglial lysates (iNOS, HuR, KSRP, Arginase 1, YM1)", "test": "Western blot analysis of microglial lysates", "assay_type": "cell-based, mouse", "details": "1.0 μM"}, "[4]": {"test_system": "allodynia after spared nerve injury", "test": "spared nerve injury (sciatic nerve) model, mechanical sensitivity (Von Frey)", "assay_type": "in vivo", "details": "acute administration to DMSO-treated mice at day 7", "procedure": "Wild-type male mice were subjected to a mid-thoracic contusion injury and then treated with SRI-42127 (15 mg/kg) every 8 hours for 4 days, starting 1 hour after injury. […] Not to be bound by theory, similar to spinal cord injury, chronic pain signaling is triggered by activation of microglia and astroglia in the spinal cord and production of inflammatory mediators (e.g. TNF-α, IL-1β, IL-6, INOS, CCL2) that induce hyperexcitation of sensory neurons in the dorsal horn. Mice underwent sciatic nerve lesioning to produce a spared nerve injury and then received SRI-42127 (15 mg/kg) or vehicle every 6 hours for 4 days (starting 1 h after injury). Mechanical sensitivity was assessed at day 7 post-injury. […] Following this test, a subset of mice in the DMSO-treated group was given an acute administration of SRI-42127 (or DMSO) and their mechanical sensitivity was tested at 30 minutes and 60 minutes post-administration. Acute treatment with SRI-42127 reversed allodynia in these mice for at least 60 minutes (p<0.01, FIG. 21, Panel D)."}, "[5]": {"test_system": "Bcl2 and Mcl1 mRNAs in LN229 cell line", "test": "Taqman quantification of Bcl2/18S and Mcl1/18S mRNA", "assay_type": "cell-based", "details": "LN229, 10 uM for 24 hours", "procedure": "(§1) The HuR-mRNA co-immunoprecipitation (IP) was performed by utilizing RiboCluster Profiler RIP-assay Kit (MBL International). The quantifications of Bcl2, and 18S transcripts were performed using Taqman technique with the following gene-specific probes: Hs00153350_m1, Hs03003631_g1, and Hs00766187_m1 (ThermoFisher Scientific) for Bcl2, 18S, and Mcl1, respectively.\n(§2) mRNA isolation and purification from adherent cells were performed using RNeasy Mini Kit and QIAshredder columns (Qiagen, Valencia, CA).\n(§3) HuR protein plays a significant role in the stabilization of the mRNAs of the anti-apoptotic Bcl2-family, which contributes to the protection of genetically unstable glioma cells from apoptosis. Therefore, the Bcl2 family was evaluated in the established and PDGx cell lines after cell treatment with SRI-41664 or SRI-42127 compounds. […] The protein levels of Bcl2 and Mcl1 were evaluated in the established U251 and PDGx XD456 glioma cell lines in the control (vehicle treatment) and after treatment with SRI-41664 or SRI-42127 compounds for 48 hours."}, "[6]": {"test_system": "Bcl2 and Mcl1 mRNAs in U87 cell line", "test": "Taqman quantification of Bcl2/18S and Mcl1/18S mRNA", "assay_type": "cell-based", "details": "U87, 10 uM for 24 hours", "procedure": "as §1, §2, §3"}, "[7]": {"test_system": "Bcl2 and Mcl1 mRNAs in PDGx XD456 cell line", "test": "Taqman quantification of Bcl2/18S and Mcl1/18S mRNA", "assay_type": "cell-based", "details": "XD456, 10 uM for 24 hours", "procedure": "as §1, §2, §3"}, "[8]": {"test_system": "Bcl2 and Mcl1 mRNAs in U251 cell line", "test": "Taqman quantification of Bcl2/18S and Mcl1/18S mRNA", "assay_type": "cell-based", "details": "U251, 10 uM for 24 hours", "procedure": "as §1, §2, §3"}, "brain tissue binding": {"test": "brain tissue binding", "assay_type": "in vitro ADME"}},
  "data": [
    {"smiles": "CN(c1ccc2ncc(-c3ccc4cn[nH]c4c3)n2n1)C1CCOCC1", "note": "[Compound 19]", "values": [
      {"measurement": "logD", "setting": "Log D at pH 7.4", "value": 3.1},
      {"measurement": "suppression of secreted chemokines KC, CCL2, CCL3, CCL4, CXCL10", "setting": "[1]", "value": "2.5 to 8.1", "unit": "fold"},
      {"measurement": "suppression of secreted IL-6", "setting": "[1]; 1.0 μM", "value": 8.8, "unit": "fold"},
      {"measurement": "suppression of secreted TNF-α", "setting": "[1]; 1.0 μM", "value": 5.7, "unit": "fold"},
      {"measurement": "HMGB1 N/C ratio", "setting": "HMGB1", "value": "no effect"},
      {"measurement": "decrease of luminescence signal from cells overexpressing the control Fluc construct", "setting": "[2]; 6 hours, represents the cytotoxic effect", "value": "26±9", "unit": "%"},
      {"measurement": "inhibition at 50 µM", "setting": "[2]; Homo sapiens, U-251, 6 h, Concn 50 uM, read-out: Fluc Imax % Inh", "value": 26, "unit": "%"},
      {"measurement": "suppression of iNOS protein", "setting": "[3]", "value": 4.2, "unit": "fold"},
      {"measurement": "duration of reversal of allodynia after acute administration", "setting": "[4]", "value": "at least 60 minutes"},
      {"measurement": "decrease of Bcl2/18S mRNA ratio", "setting": "[5]", "value": "95±2", "unit": "%"},
      {"measurement": "decrease of Mcl1/18S mRNA ratio", "setting": "[5]", "value": "87±8", "unit": "%"},
      {"measurement": "decrease of Bcl2/18S mRNA ratio", "setting": "[6]", "value": "95±2", "unit": "%"},
      {"measurement": "decrease of Mcl1/18S mRNA ratio", "setting": "[6]", "value": "86±7", "unit": "%"},
      {"measurement": "decrease of Bcl2/18S mRNA ratio", "setting": "[7]", "value": "96±2", "unit": "%"},
      {"measurement": "decrease of Mcl1/18S mRNA ratio", "setting": "[7]", "value": "90±9", "unit": "%"},
      {"measurement": "decrease of Bcl2/18S mRNA ratio", "setting": "[8]", "value": "96±2", "unit": "%"},
      {"measurement": "decrease of Mcl1/18S mRNA ratio", "setting": "[8]", "value": "95±3", "unit": "%"},
      {"measurement": "brain tissue binding", "setting": "brain tissue binding", "value": 99.13, "unit": "%"},
      {"measurement": "recovery", "setting": "brain tissue binding; brain tissue, relatively low due to instability or high nonspecific binding", "value": 69.6, "unit": "%"}
    ]}
  ]
}
